Assays:
[1] = test system: stage IV non-small cell lung cancer; conditions: cited from earlier work
tumor = conditions: tirapazamine alone given at 70 mg/kg; cited from earlier work
[2] = cited from earlier work
hypoxic cells = conditions: cited from earlier work
[3] = Weight loss in multiple dosing xenograft study; assay type: in vivo, nude mice; conditions: day 14; tirapazamine 60 mg/kg ip days 8, 10, 12 (alone or with stilbene 5c 50 mg/kg)
Protocol: Next we measured the size of tumor xenografts after multiple dosing. Nude mice were injected subcutaneously with UCI-101 cells and tumor became visible after day 7. Treatment was administered by intraperitoneal injection on days 8, 10 and 12 with 6 mice in each group. […] […]. […].

UCI-101 tumor xenografts = assay: Tumor xenograft size after multiple dosing (days 8, 10, 12); assay type: in vivo, nude mice; conditions: ip on days 8, 10 and 12; stilbene 5c 50 mg/kg, tirapazamine 60 mg/kg; day 14; 6 mice per group
Protocol: The long and short axes of tumor were measured to calculate tumor size and plotted against days. Each treatment group contains 6 mice.
Mice were then sacrificed at day 14. The long and short axes of tumors were measured to calculate tumor size and plotted against days. Each treatment group contains 6 mice.
Tumor cell lines used in this study include UCI-101 ovarian cancer cells and Hep3B hepatocellular carcinoma cells. Cells are grown in IMEM and DMEM, respectively, supplemented with 10% fetal bovine serum, glutamine, and penicillium/streptomycin in 5% CO2 humidified environment. When cells were grown to 80% confluent, cells were harvested with 1% trypsin and washed with phosphate-buffered saline three times before injected subcutaneously into nude mice. For mouse xenograft studies, 2×10^6 tumor cells were injected in the back subcutaneously. Nude mice were purchased from NCI Development Therapeutic Program as described. Tumor size was monitored by long and short axes (a and b, respectively) by a caliber and tumor volume was calculated by the formula ab^2/2. […] Treatment with AAA bevacizumab was done by tail vein injection at a dose of 10 mg/kg.
Next we measured the size of tumor xenografts after multiple dosing. Nude mice were injected subcutaneously with UCI-101 cells and tumor became visible after day 7. […] Tumor xenografts were measured and sizes are plotted in FIG. 7.

[4] = in vivo; cited from earlier work
[5] = in vivo; cited from earlier work; remark: listed apart in the source
UCI-101 tumor xenograft = assay: Tumor growth, stilbene 5c with or without bevacizumab; assay type: in vivo, nude mice; conditions: stilbene 5c 20 mg/kg/day Monday to Friday for two weeks; bevacizumab 10 mg/kg twice a week for 5 doses
Protocol: FIG. 4. Efficacy of stilbene 5c in vivo and enhanced effect by bevacizumab. Nude mice were injected with UCI-101 cells subcutaneously and mice are treated with stilbene 5c at 20 mg/kg/day Monday-Friday with or without bevacizumab 10 mg/kg twice a week. Tumor volume was calculated by the long and short axes. Each group contains 8 mice and the average tumor volumes and standard deviations were plotted against days.
Tumor cell lines used in this study include UCI-101 ovarian cancer cells and Hep3B hepatocellular carcinoma cells. Cells are grown in IMEM and DMEM, respectively, supplemented with 10% fetal bovine serum, glutamine, and penicillium/streptomycin in 5% CO2 humidified environment. When cells were grown to 80% confluent, cells were harvested with 1% trypsin and washed with phosphate-buffered saline three times before injected subcutaneously into nude mice. For mouse xenograft studies, 2×10^6 tumor cells were injected in the back subcutaneously. Nude mice were purchased from NCI Development Therapeutic Program as described. Tumor size was monitored by long and short axes (a and b, respectively) by a caliber and tumor volume was calculated by the formula ab^2/2. […]. Treatment with AAA bevacizumab was done by tail vein injection at a dose of 10 mg/kg.
Next we used ovarian cancer UCI101 cells to study the in vivo efficacy of stilbene 5c We first administered stilbene 5c with intraperitoneal injection at 25 mg/kg three times a week. Tumor volume was calculated by measuring the long and short axes. […] The failure could be due to the possibility that intermittent dosing leaves a viable rim of tumor, which survives the treatment of VDAs by getting nutritional and blood support from surrounding normal vasculature. When treatment with VDAs is stopped, the viable rim of tumor grows quickly. Tumor vasculature recovers quickly by recruitment of the mobilized endothelial progenitor cells. Based on this rationale, we combined stilbene 5c with bevacizumab, which was used to neutralize VEGF secreted by UCI-101 tumor cells. […]

[6] = phase I, intravenous every three weeks

Compound	response rate, overall survival, or progression free survival ([1]; tirapazamine 260-330 mg/m^2 added to carboplatin and paclitaxel vs placebo)	systemic toxicity ([1]; tirapazamine added to carboplatin and paclitaxel vs placebo)	tumor growth suppression (tumor)	tolerated dose, tirapazamine by itself ([2]; phase I and phase II trials)	dose with dose limiting toxicities (reversible ototoxicity and transient visual abnormality) [2, 6]	maximum tolerated dose (MTD) [2, 6] [mg/m^2]	greater toxicity to hypoxic cells compared to well-oxygenated cells (hypoxic cells)	weight loss [3] [%]	size of tumor compared with the control (UCI-101 tumor xenografts)	potential side effects in animal studies [4]	half-life [5]	tumor growth suppression (UCI-101 tumor xenograft)
Nc1n[n+]([O-])c2ccccc2[n+]1[O-] [tirapazamine, 3-amino-1,2,4-benzotriazine-1,4-di-N-oxide]	no benefit	increased systemic toxicity	no effect	up to 390 mg/m^2	above 330 mg/m^2	390	15-200 fold	20	about 50%	bone marrow toxicity, necrosis of the olfactory nerve, and retinal degeneration		
bevacizumab: a monoclonal antibody against vascular endothelial growth factor (VEGF) [reference compound]											over 7 days	about 25%

From patent publication US10159676B2, “Induction of tumor hypoxia for cancer therapy” (Virginia Commonwealth University, priority 2008, dated 2018)
